Assays:
[1] = test system: presynaptic α-adrenoceptors; test: Inhibition of electrically induced tachycardia in the spinal rat; assay type: in vivo, rats; details: i.v.
Excerpt: There is an auto-regulation system of the noradrenaline release at the adrenergic nerve ends. The stimulation of presynaptic α-adrenoreceptors has an inhibiting effect upon the noradrenaline release and thus a limiting effect upon the adrenergic neurotransmission. Accordingly, upon stimulation of these "feedback receptors", the effect of a given adrenergic stimulation on the […] is reduced.
Male laboratory rats having a body weight of 350-400 gm were anesthetized with pentobarbital (50 mgm/kg i.p.), vagotomized, treated with atropine (1 mgm/kg s.c.), and a tracheal cannula was inserted. After enucleation of an eye, the orbita was punctured, the brain was destroyed, and a metal rod was pushed through the vertebral canal. Artificial respiration was applied to the animals, and they were pre-treated with gallamine (4 mgm/kg i.v.). […] Upon insertion of the rod into the vertebral canal, this uninsulated section is positioned in the area of the last cervical vertebra and the first thoracic vertebra. With the aid of a stimulator a supramaximal stimulus (rectangular impulses 50 V, 2 ms; 0.2 Hz; duration of stimulus 25 sec.) was applied against a counter-electrode inserted into the neck skin.
The blood pressure was measured in an A. carotis by means of an electro-mechanical pressure transducer. […] Both of these signals were recorded on a polygraph.

Acute toxicity in mice = details: mouse, in vivo, observation time 14 days
Protocol: The acute toxicity was determined in mice after oral or intravenous administration. Observation time: 14 days.

[2] = test system: postsynaptic α-adrenoreceptos; test: Hypertensive activity in the spinal rat; assay type: in vivo, rats; details: i.v.
Protocol: 3. Effect on postsynaptic α-adrenoreceptos: Hypertensive activity in the spinal rat
The increase in blood pressure which occurs upon stimulation of postsynaptic α-adrenoreceptos was measured on the spinal rat model.
Male laboratory rats having a body weight of 200-250 gm were anesthetized (1.2 gm/kg urethane i.p., 1 mgm/kg atropine s/c/). Thereafter, the central spinal cord canal was opened, the spinal cord was severed at C1, and the medulla oblongata and the brain were destroyed with a metal sound. Artificial respiration was applied to the animals, and a polyethylene catheter was tied into a jugular vein. The blood pressure was measured in an A. carotis and continuously recorded by means of a Statham element on a Grass polygraph. The test compound was administered i.v. by way of the catheter.
From the raw data thus obtained, the dose of the test compound which increases the arterial blood pressure by 30 mm Hg (D30) was determined.

[3] = test system: circulation of intact, anesthetized rats; test: Effect upon blood pressure and heart rate in intact, anesthetized rats after intravenous injection; assay type: in vivo; details: 3 mg/kg i.v.
Protocol: 1. Effect upon blood pressure and heart rate
The changes in the circulation of intact, anesthetized rats after intravenous injection of the test compound were recorded.
Male laboratory rats having a body weight of 120-360 gm were anesthetized with pentobarbital (70 mgm/kg). The animals breathed spontaneously through a tracheal cannula. The blood pressure was continuously measured in an A. carotis with the aid of an electro-mechanical pressure transducer; the pulse wave triggered a tachograph which continuously recorded the heart rate. Both parameters were plotted on a polygraph. The test compound was injected through a catheter into a V. jugularis.
At a dose of 3 mgm/kg i.v. the test compounds produced an initial increase in the blood pressure of short duration and then a long-lasting decrease in the blood pressure. The decrease in the heart rate was distinct and of long duration.

| Structure (SMILES) | D50 (dose which inhibits the electrically induced tachycardia by 50%) [1] | LD50 at 336 h (Acute toxicity in mice; iv) | LD50 at 336 h (Acute toxicity in mice; po) | D30 (dose which increases the arterial blood pressure by 30 mm Hg) [2] | Blood pressure, depressor phase (maximum value) [3] | Blood pressure, pressor phase (maximum value) [3] | Heart rate reduction (maximum value) [3] |
| --- | --- | --- | --- | --- | --- | --- | --- |
| CCN1CCc2ncc(N)nc2CC1.Cl.Cl [A, 7-Ethyl-2-amino-6,7,8,9-tetrahydro-5H-pyrazino[2,3-d]azepine dihydrochloride] | 28 μgm/kg | 215 mg/kg | 1250 mg/kg | 480 μgm/kg | -20 mm Hg | +61 mm Hg | -116 beats/minute |
| C=CCN1CCc2ncc(N)nc2CC1.Cl.Cl [B, 7-Allyl-2-amino-6,7,8,9-tetrahydro-5H-pyrazino[2,3-d]azepine dihydrochloride] | – | – | – | 2.6 mgm/kg | -20 mm Hg | +40 mm Hg | -122 beats/minute |
| CN1CCc2ncc(N)nc2CC1.Cl.Cl [C, 2-Amino-6,7,8,9-tetrahydro-7-methyl-5H-pyrazino[2,3-d]azepine dihydrochloride] | – | – | – | – | -36 mm Hg | +26 mm Hg | -105 beats/minute |
| CCN1CCc2nc(N)c(Br)nc2CC1.Cl [Compound D, 7-Ethyl-2-amino-3-bromo-6,7,8,9-tetrahydro-5H-pyrazino[2,3-d]azepine hydrochloride] | – | – | – | – | -5 mm Hg | +50 mm Hg | -55 beats/minute |
| CCN1CCc2nc(N)c(Cl)nc2CC1.Cl [E, 7-Ethyl-2-amino-3-chloro-6,7,8,9-tetrahydro-5H-pyrazino[2,3-d]azepine hydrochloride] | – | – | – | – | -11 mm Hg | +32 mm Hg | -70 beats/minute |
| CCN1CCc2nc(C)c(N)nc2CC1.Cl.Cl [F, 7-Ethyl-2-amino-6,7,8,9-tetrahydro-3-methyl-5H-pyrazino-[2,3-d]azepine dihydrochloride] | – | – | – | – | -10 mm Hg | +38 mm Hg | -78 beats/minute |
| CCN1CCc2nc(N)cnc2C1.Cl.Cl [G, 6-Ethyl-2-amino-5,6,7,8-tetrahydro-pyrido[3,4-b]pyrazine dihydrochloride] | 670 μgm/kg | – | – | 1.4 mgm/kg | -41 mm Hg | +6 mm Hg | -145 beats/minute |
| Cl.Nc1cnc2c(n1)CCN(C1CC1)CC2 [H, 2-Amino-7-cyclopropyl-6,7,8,9-tetrahydro-5H-pyrazino[2,3-d]azepine hydrochloride] | – | – | – | – | -28 mm Hg | +51 mm Hg | -110 beats/minute |

Source: US4486433A, “Fused-ring amino-pyrazines as bradycardiacs” (Dr. Karl Thomae Gesellschaft mit beschrankter Haftung, priority 1980, dated 1984)
